The record followed here is the supplement of paper PMC10307832.

Common to all, as to test: relative viability (nuclei count vs DMSO), 5 days (fraction); higher = more cells survive
Compound in experiment [1]: COc1cc(Nc2ncc3c(n2)-c2ccc(Cl)cc2C(c2c(F)cccc2OC)=NC3)ccc1C(=O)O [Alisertib] + Cc1nc(Nc2ncc(C(=O)Nc3c(C)cccc3Cl)s2)cc(N2CCN(CCO)CC2)n1 [Dasatinib] (partner 0.075 µM)
The gist of the method: (§1)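 Relative viability divides the nuclei count in treated wells by that in vehicle wells. Lung cancer cell lines were seeded in 1536-well plates, dosed by pin tool the next day, and fixed and stained after 5 days in one step with final 0.05% Triton X-100, 1% formaldehyde and 1 ug/ml Hoechst. Dosing was a single drug or a fixed anchor-drug dose plus five library-drug doses (not always all listed) in √10 steps, and values are medians of duplicate plates imaged at 4×.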

Compound in experiment [2]: COc1cc(Nc2ncc3c(n2)-c2ccc(Cl)cc2C(c2c(F)cccc2OC)=NC3)ccc1C(=O)O [Alisertib] + O=C(CCCCCCC(=O)Nc1ccccc1)NO [Vorinostat] (partner 1 µM)
The essentials:
as §1

Compound in experiment [3]: COc1cc(Nc2ncc3c(n2)-c2ccc(Cl)cc2C(c2c(F)cccc2OC)=NC3)ccc1C(=O)O [Alisertib] + C[C@@H](Oc1cc(-c2cnn(C3CCNCC3)c2)cnc1N)c1c(Cl)ccc(F)c1Cl [Crizotinib] (partner 1 µM)
The essentials: as §1

Compound in experiment [4]: COc1cc(Nc2ncc3c(n2)-c2ccc(Cl)cc2C(c2c(F)cccc2OC)=NC3)ccc1C(=O)O [Alisertib] + CC1(C)CCC(c2ccc(Cl)cc2)=C(CN2CCN(c3ccc(C(=O)NS(=O)(=O)c4ccc(N[C@H](CCN5CCOCC5)CSc5ccccc5)c(S(=O)(=O)C(F)(F)F)c4)cc3)CC2)C1 [Navitoclax] (partner 0.5 µM)
The gist of the method:
as §1

For NCI-H2023, the relative viability amounted to 0.561 in experiment [1] (first compound 0.005 µM); 0.492 in experiment [1] (first compound 0.01581 µM); 0.35 in experiment [1] (first compound 0.05 µM); 0.167 in experiment [1] (first compound 0.1581 µM); 0.0881 in experiment [1] (first compound 0.5 µM); 0.565 in experiment [2] (first compound 0.005 µM). In addition, the relative viability in experiment [2] (first compound 0.01581 µM) is 0.31; in experiment [2] (first compound 0.05 µM) it was 0.215; in experiment [2] (first compound 0.1581 µM) it was 0.12; in experiment [2] (first compound 0.5 µM) it was 0.0981; in experiment [3] (first compound 0.005 µM), 0.721; in experiment [3] (first compound 0.01581 µM), 0.64. For the same cell line, the relative viability in experiment [3] (first compound 0.05 µM) was 0.345; in experiment [3] (first compound 0.1581 µM), 0.142; in experiment [3] (first compound 0.5 µM), 0.112; in experiment [4] (first compound 0.005 µM) it was 0.955; in experiment [4] (first compound 0.01581 µM), 0.885; in experiment [4] (first compound 0.05 µM), 0.656. For the same cell line, the relative viability is 0.282 in experiment [4] (first compound 0.1581 µM) and 0.132 in experiment [4] (first compound 0.5 µM).
As for COR-L 105, the relative viability in experiment [1] (first compound 0.005 µM) turned out to be 0.291; in experiment [1] (first compound 0.01581 µM), 0.296; in experiment [1] (first compound 0.05 µM), 0.293; in experiment [1] (first compound 0.1581 µM) it was 0.194; in experiment [1] (first compound 0.5 µM), 0.177; in experiment [2] (first compound 0.005 µM), 0.687. In addition, the relative viability in experiment [2] (first compound 0.01581 µM) stood at 0.701; in experiment [2] (first compound 0.05 µM), 0.496; in experiment [2] (first compound 0.1581 µM), 0.302; in experiment [2] (first compound 0.5 µM), 0.321; in experiment [3] (first compound 0.005 µM), 0.857; in experiment [3] (first compound 0.01581 µM) it was 0.587. Moreover, the relative viability in experiment [3] (first compound 0.05 µM) stood at 0.621; in experiment [3] (first compound 0.1581 µM), 0.523; in experiment [3] (first compound 0.5 µM), 0.251; in experiment [4] (first compound 0.005 µM), 0.909; in experiment [4] (first compound 0.01581 µM), 0.686; in experiment [4] (first compound 0.05 µM) it was 0.532. The relative viability in experiment [4] (first compound 0.1581 µM) came out at 0.273; in experiment [4] (first compound 0.5 µM), 0.287.
On to NCI-H1734, for which the relative viability in experiment [1] (first compound 0.005 µM) turned out to be 0.449; in experiment [1] (first compound 0.01581 µM), 0.358; in experiment [1] (first compound 0.05 µM), 0.291; in experiment [1] (first compound 0.1581 µM), 0.181; in experiment [1] (first compound 0.5 µM), 0.151; in experiment [2] (first compound 0.005 µM), 0.604. The relative viability in experiment [2] (first compound 0.01581 µM) was 0.519; in experiment [2] (first compound 0.05 µM), 0.302; in experiment [2] (first compound 0.1581 µM), 0.221; in experiment [2] (first compound 0.5 µM), 0.189; in experiment [3] (first compound 0.005 µM) it was 0.669; in experiment [3] (first compound 0.01581 µM) it was 0.523. In addition, the relative viability came to 0.357 in experiment [3] (first compound 0.05 µM); 0.227 in experiment [3] (first compound 0.1581 µM); 0.155 in experiment [3] (first compound 0.5 µM); 0.851 in experiment [4] (first compound 0.005 µM); 0.782 in experiment [4] (first compound 0.01581 µM); 0.366 in experiment [4] (first compound 0.05 µM). The relative viability in experiment [4] (first compound 0.1581 µM) was 0.164; in experiment [4] (first compound 0.5 µM) it was 0.0931.
With NCI-H3122, the relative viability in experiment [1] (first compound 0.005 µM) was 0.581; in experiment [1] (first compound 0.01581 µM) it was 0.664; in experiment [1] (first compound 0.05 µM), 0.498; in experiment [1] (first compound 0.1581 µM), 0.103; in experiment [1] (first compound 0.5 µM), 0.134; in experiment [2] (first compound 0.005 µM), 0.891. The relative viability in experiment [2] (first compound 0.01581 µM) stood at 0.79; in experiment [2] (first compound 0.05 µM) it was 0.799; in experiment [2] (first compound 0.1581 µM), 0.282; in experiment [2] (first compound 0.5 µM), 0.186; in experiment [3] (first compound 0.005 µM) it was 0.244; in experiment [3] (first compound 0.01581 µM), 0.306. Moreover, the relative viability in experiment [3] (first compound 0.05 µM) is 0.217; in experiment [3] (first compound 0.1581 µM), 0.218; in experiment [3] (first compound 0.5 µM) it was 0.191; in experiment [4] (first compound 0.005 µM) it was 1.04; in experiment [4] (first compound 0.01581 µM), 0.992; in experiment [4] (first compound 0.05 µM), 0.664. Further, the figures for the relative viability in experiment [4] (first compound 0.1581 µM) and in experiment [4] (first compound 0.5 µM) were 0.592 and 0.237, respectively.
For CAL-12T, the relative viability in experiment [1] (first compound 0.005 µM) was 0.275; in experiment [1] (first compound 0.01581 µM), 0.158; in experiment [1] (first compound 0.05 µM), 0.0813; in experiment [1] (first compound 0.1581 µM) it was 0.113; in experiment [1] (first compound 0.5 µM) it was 0.0899; in experiment [2] (first compound 0.005 µM), 0.506. Besides, the relative viability in experiment [2] (first compound 0.01581 µM) is 0.592; in experiment [2] (first compound 0.05 µM) it was 0.262; in experiment [2] (first compound 0.1581 µM), 0.189; in experiment [2] (first compound 0.5 µM), 0.169; in experiment [3] (first compound 0.005 µM), 0.613; in experiment [3] (first compound 0.01581 µM), 0.232. In addition, the relative viability was 0.142 in experiment [3] (first compound 0.05 µM); 0.166 in experiment [3] (first compound 0.1581 µM); 0.109 in experiment [3] (first compound 0.5 µM); 1.15 in experiment [4] (first compound 0.005 µM); 0.568 in experiment [4] (first compound 0.01581 µM); 0.208 in experiment [4] (first compound 0.05 µM). Further, the relative viability in experiment [4] (first compound 0.1581 µM) came out at 0.141; in experiment [4] (first compound 0.5 µM), 0.165.
Consider HCC-78, for which the relative viability is 0.379 in experiment [1] (first compound 0.005 µM); 0.369 in experiment [1] (first compound 0.01581 µM); 0.177 in experiment [1] (first compound 0.05 µM); 0.171 in experiment [1] (first compound 0.1581 µM); 0.188 in experiment [1] (first compound 0.5 µM); 0.369 in experiment [2] (first compound 0.005 µM). Besides, the relative viability in experiment [2] (first compound 0.01581 µM) came out at 0.281; in experiment [2] (first compound 0.05 µM), 0.234; in experiment [2] (first compound 0.1581 µM) it was 0.241; in experiment [2] (first compound 0.5 µM) it was 0.217; in experiment [3] (first compound 0.005 µM), 0.358; in experiment [3] (first compound 0.01581 µM) it was 0.291. The relative viability turned out to be 0.205 in experiment [3] (first compound 0.05 µM); 0.153 in experiment [3] (first compound 0.1581 µM); 0.205 in experiment [3] (first compound 0.5 µM); 0.681 in experiment [4] (first compound 0.005 µM); 0.514 in experiment [4] (first compound 0.01581 µM); 0.176 in experiment [4] (first compound 0.05 µM). Besides, the relative viability in experiment [4] (first compound 0.1581 µM) and in experiment [4] (first compound 0.5 µM) was 0.131 in each case.
Take NCI-H2085: the relative viability was determined as 0.233 in experiment [1] (first compound 0.005 µM); 0.203 in experiment [1] (first compound 0.01581 µM); 0.207 in experiment [1] (first compound 0.05 µM); 0.184 in experiment [1] (first compound 0.1581 µM); 0.171 in experiment [1] (first compound 0.5 µM); 0.73 in experiment [2] (first compound 0.005 µM). The relative viability was 0.771 in experiment [2] (first compound 0.01581 µM); 0.431 in experiment [2] (first compound 0.05 µM); 0.441 in experiment [2] (first compound 0.1581 µM); 0.448 in experiment [2] (first compound 0.5 µM); 0.757 in experiment [3] (first compound 0.005 µM); 0.693 in experiment [3] (first compound 0.01581 µM). The relative viability in experiment [3] (first compound 0.05 µM) was 0.33; in experiment [3] (first compound 0.1581 µM), 0.391; in experiment [3] (first compound 0.5 µM), 0.388; in experiment [4] (first compound 0.005 µM), 1.15; in experiment [4] (first compound 0.01581 µM), 1.03; in experiment [4] (first compound 0.05 µM) it was 0.401. Further, the relative viability in experiment [4] (first compound 0.1581 µM) stood at 0.278; in experiment [4] (first compound 0.5 µM) it was 0.247.
